Values quoted from earlier work, collected in PubChem BioAssay AID1259409 (Chemical Carcinogenesis Research Information System (CCRIS), 2018).

System: rodent chemically induced tumor inhibition, incidence and multiplicity
Experiment: CCRIS tumor inhibitor studies

In the case of `O=C(O)/C=C/C(=O)O`, the “tumour outcome (control, treated, inhibition, significance)” value (Carcinogen: 3'-METHYL-4-DIMETHYLAMINOAZOBENZENE, 55-80-1, Dose [Inhibitor]: 1% IN DIET AND 0.025% IN DRINKING WATER CONCOMITANTLY FOR 51 WK STARTING AT COMPLETION OF CARCINOGEN TREATMENT (STUDY DU, Route [Inhibitor]: ORAL, Species: RAT, Strain/Sex: DONRYU/MALE, Target Tissue: Type of Lesion: LIVER: CARCINOMA, Dose [Carcinogen]: 0.06% IN DIET FOR 50 D, Promoter: NONE USED) is given as 11/13 (85%), 2/15 (13%), 85%, p<0.0002, the “tumour outcome (control, treated, inhibition, significance)” value (Carcinogen: 4-(METHYLNITROSAMINO)-1-(3-PYRIDYL)-1-BUTANONE [64091-50-5], Dose [Inhibitor]: 80 MMOL/KG IN DIET FOR 17 WK BEGINNING 1 WK PRIOR TO FIRST CARCINOGEN DOSE (STUDY DURATION: 17 WK), Route [Inhibitor]: ORAL, Species: MOUSE, Strain/Sex: A/J/FEMALE, Target Tissue: Type of Lesion: LUNG: ADENOMA, Dose [Carcinogen]: 10 UMOL ONCE 1 WK POST FIRST INHIBITOR DOSE (STUDY DURATION: 17 WK), Promoter: NONE) is given as 100%, 100%, 0%, not significant and the “tumour outcome (control, treated, inhibition, significance)” value (Carcinogen: 4-(METHYLNITROSAMINO)-1-(3-PYRIDYL)-1-BUTANONE [64091-50-5], Dose [Inhibitor]: 80 MMOL/KG IN DIET FOR 53 WK BEGINNING 1 WK PRIOR TO FIRST CARCINOGEN DOSE (STUDY DURATION: 53 WK), Route [Inhibitor]: ORAL, Species: MOUSE, Strain/Sex: A/J/FEMALE, Target Tissue: Type of Lesion: LUNG: ADENOMA OR ADENOCARCINOMA, Dose [Carcinogen]: 10 UMOL ONCE 1 WK POST FIRST INHIBITOR DOSE (STUDY DURATION: 53 WK), Promoter: NONE) is given as 100%, 97%, 3%, not significant. For the same molecule, the “tumour outcome (control, treated, inhibition, significance)” value (Carcinogen: 4-(METHYLNITROSAMINO)-1-(3-PYRIDYL)-1-BUTANONE [64091-50-5], Dose [Inhibitor]: 160 MMOL/KG IN DIET FOR 17 WK BEGINNING 1 WK PRIOR TO FIRST CARCINOGEN DOSE (STUDY DURATION: 17 WK), Route [Inhibitor]: ORAL, Species: MOUSE, Strain/Sex: A/J/FEMALE, Target Tissue: Type of Lesion: LUNG: ADENOMA, Dose [Carcinogen]: 10 UMOL ONCE 1 WK POST FIRST INHIBITOR DOSE (STUDY DURATION: 17 WK), Promoter: NONE) was 100%, 100%, 0%, not significant, the “tumour outcome (control, treated, inhibition, significance)” value (Carcinogen: 4-(METHYLNITROSAMINO)-1-(3-PYRIDYL)-1-BUTANONE [64091-50-5], Dose [Inhibitor]: 160 MMOL/KG IN DIET FOR 53 WK BEGINNING 1 WK PRIOR TO FIRST CARCINOGEN DOSE (STUDY DURATION: 53 WK), Route [Inhibitor]: ORAL, Species: MOUSE, Strain/Sex: A/J/FEMALE, Target Tissue: Type of Lesion: LUNG: ADENOMA OR ADENOCARCINOMA, Dose [Carcinogen]: 10 UMOL ONCE 1 WK POST FIRST INHIBITOR DOSE (STUDY DURATION: 53 WK), Promoter: NONE) was 100%, 97%, 3%, not significant and the “tumour outcome (control, treated, inhibition, significance)” value (Carcinogen: POTASSIUM 1-METHYL-7-[2-(5-NITRO-2-FURYL)VINYL]-4-OXO-1,4-DIHYDRO-1,8- NAPHTHYRIDINE-3-CARBOXYLATE, 29676-95-7, Dose [Inhibitor]: 1% IN DIET FOR 39 WK STARTING AT COMPLETION OF CARCINOGEN TREATMENT (STUDY DURATION: 53 WK), Route [Inhibitor]: ORAL, Species: MOUSE, Strain/Sex: ICR/MALE, Target Tissue: Type of Lesion: FORESTOMACH: SQUAMOUS CELL CARCINOMA, Dose [Carcinogen]: 0.012% DIET FOR 14 WK, Promoter: NONE USED) was 7/30 (23%), 1/32 (3%), 87%, p<0.05. For the same molecule, the “tumour outcome (control, treated, inhibition, significance)” value (Carcinogen: POTASSIUM 1-METHYL-7-[2-(5-NITRO-2-FURYL)VINYL]-4-OXO-1,4-DIHYDRO-1,8- NAPHTHYRIDINE-3-CARBOXYLATE, 29676-95-7, Dose [Inhibitor]: 1% IN DIET FOR 39 WK STARTING AT COMPLETION OF CARCINOGEN TREATMENT (STUDY DURATION: 53 WK), Route [Inhibitor]: ORAL, Species: MOUSE, Strain/Sex: ICR/MALE, Target Tissue: Type of Lesion: FORESTOMACH: SQUAMOUS CELL PAPILLOMA, Dose [Carcinogen]: 0.012% IN DIET FOR 14 WK, Promoter: NONE USED) was 13/30 (43%), 0/32 (0%), 100%, not significant, the “tumour outcome (control, treated, inhibition, significance)” value (Carcinogen: POTASSIUM 1-METHYL-7-[2-(5-NITRO-2-FURYL)VINYL]-4-OXO-1,4-DIHYDRO-1,8- NAPHTHYRIDINE-3-CARBOXYLATE, 29676-95-7, Dose [Inhibitor]: 1% IN DIET FOR 39 WK STARTING AT COMPLETION OF CARCINOGEN TREATMENT (STUDY DURATION: 53 WK), Route [Inhibitor]: ORAL, Species: MOUSE, Strain/Sex: ICR/MALE, Target Tissue: Type of Lesion: LUNG: ADENOCARCINOMA, Dose [Carcinogen]: 0.012% IN DIET FOR 14 WK, Promoter: NONE USED) was 2/30 (7%), 11/32 (34%), -386%, not significant and the “tumour outcome (control, treated, inhibition, significance)” value (Carcinogen: POTASSIUM 1-METHYL-7-[2-(5-NITRO-2-FURYL)VINYL]-4-OXO-1,4-DIHYDRO-1,8- NAPHTHYRIDINE-3-CARBOXYLATE, 29676-95-7, Dose [Inhibitor]: 1% IN DIET FOR 39 WK STARTING AT COMPLETION OF CARCINOGEN TREATMENT (STUDY DURATION: 53 WK), Route [Inhibitor]: ORAL, Species: MOUSE, Strain/Sex: ICR/MALE, Target Tissue: Type of Lesion: LUNG: PAPILLOTUBULAR ADENOCARCINOMA, Dose [Carcinogen]: 0.012% IN DIET FOR 14 WK, Promoter: NONE USED) was 27/30 (90%), 0/32 (0%), 100%, p<0.01. For the same molecule, the “tumour outcome (control, treated, inhibition, significance)” value (Carcinogen: THIOACETAMIDE, 62-55-5, Dose [Inhibitor]: 1% IN DIET FOR 48 WK GIVEN POST CARCINOGEN (STUDY DURATION: 88 WK), Route [Inhibitor]: ORAL, Species: MOUSE, Strain/Sex: ICR/MALE, Target Tissue: Type of Lesion: LIVER: HEPATOCELLULAR CARCINOMA, Dose [Carcinogen]: 0.035% IN DIET FOR 40 WK, Promoter: NONE USED) was 11/24 (46%), 0/15 (0%), 100%, p<0.01.
For `CC1=C(O)C(=O)CO1`, the “tumour outcome (control, treated, inhibition, significance)” value (Carcinogen: BENZO[A]PYRENE, 50-32-8, Dose [Inhibitor]: 0, 25 PPM IN DIET FOR 17 WK BEGINNING 1 WK POST CARCINOGEN TREATMENT (STUDY DURATION: 21 WK), Route [Inhibitor]: ORAL, Species: MOUSE, Strain/Sex: ICR/FEMALE, Target Tissue: Type of Lesion: FORESTOMACH: TUMOR, Dose [Carcinogen]: 1.5 MG IN 0.2 ML CORN OIL 1/WK FOR 4 WK, Promoter: NONE USED) is given as 90%, 80%, 11%, not significant, the “tumour outcome (control, treated, inhibition, significance)” value (Carcinogen: BENZO[A]PYRENE, 50-32-8, Dose [Inhibitor]: 0, 50 PPM IN DIET FOR 17 WK BEGINNING 1 WK POST CARCINOGEN TREATMENT (STUDY DURATION: 21 WK), Route [Inhibitor]: ORAL, Species: MOUSE, Strain/Sex: ICR/FEMALE, Target Tissue: Type of Lesion: FORESTOMACH: TUMOR, Dose [Carcinogen]: 1.5 MG IN 0.2 ML CORN OIL 1/WK FOR 4 WK, Promoter: NONE USED) is given as 90%, 85%, 6%, not significant and the “tumour outcome (control, treated, inhibition, significance)” value (Carcinogen: BENZO[A]PYRENE, 50-32-8, Dose [Inhibitor]: 0, 75 PPM IN DIET FOR 17 WK BEGINNING 1 WK POST CARCINOGEN TREATMENT (STUDY DURATION: 21 WK), Route [Inhibitor]: ORAL, Species: MOUSE, Strain/Sex: ICR/FEMALE, Target Tissue: Type of Lesion: FORESTOMACH: TUMOR, Dose [Carcinogen]: 1.5 MG IN 0.2 ML CORN OIL 1/WK FOR 4 WK, Promoter: NONE USED) is given as 90%, 80%, 11%, not significant.
For `O=S(=O)(O)c1ccc(S)cc1`, the “tumour outcome (control, treated, inhibition, significance)” value (Carcinogen: BETA-PROPIOLACTONE, 57-57-8, Dose [Inhibitor]: 40 UMOL IN 0.2 ML WATER 5 MIN PRIOR TO EACH CARCINOGEN DOSE (STUDY DURATION: 26 WK), Route [Inhibitor]: GAVAGE, Species: MOUSE, Strain/Sex: STRAIN-A/FEMALE, Target Tissue: Type of Lesion: FORESTOMACH: PAPILLOMA, Dose [Carcinogen]: 28 UMOL IN 0.1 ML WATER 2/WK FOR 10 WK, Promoter: NONE USED) is given as 100%, 57%, 43%, p<0.001 and the “tumour outcome (control, treated, inhibition, significance)” value (Carcinogen: BETA-PROPIOLACTONE, 57-57-8, Dose [Inhibitor]: 70 UMOL IN 0.2 ML WATER BEGINNING 5 MIN PRIOR TO EACH CARCINOGEN DOSE (STUDY DURATION: 50 WK), Route [Inhibitor]: INTRARECTAL, Species: RAT, Strain/Sex: F344/MALE, Target Tissue: Type of Lesion: LARGE INTESTINE: ADENOMATOUS POLYP, Dose [Carcinogen]: 35 UMOL IN 0.1 ML PROPYLENE GLYCOL 2/WK FOR 6 WK, Promoter: NONE USED) is given as 100%, 21%, 79%, p<0.001.
In the case of Ac-SDAAVDTSSEITTKDLKEKKEVVEEAEN-OH, the “tumour outcome (control, treated, inhibition, significance)” value (Carcinogen: N-BUTYL-N-(4-HYDROXYBUTYL)NITROSAMINE, 3817-11-6, Dose [Inhibitor]: 0, 0.3 UG IN 100 µL SALINE INJECTED INTO RIGHT THIGH 2/WK FOR 20 WK (STUDY DURATION: 20 WK), Route [Inhibitor]: INTRAMUSCULAR, Species: MOUSE, Strain/Sex: C3H/HEJ/FEMALE, Target Tissue: Type of Lesion: BLADDER: CARCINOMA, Dose [Carcinogen]: 0.05% (W/V) SOLUTION IN DRINKING WATER WITH 0.001% (W/V) TWEEN 80 FOR 20 WK, Promoter: NONE USED) is given as 6/11 (55%), 5/12 (42%), 24%, not significant, the “tumour outcome (control, treated, inhibition, significance)” value (Carcinogen: N-BUTYL-N-(4-HYDROXYBUTYL)NITROSAMINE, 3817-11-6, Dose [Inhibitor]: 0, 0.3 UG IN 100 µL SALINE INJECTED INTO RIGHT THIGH 2/WK FOR 25 WK (STUDY DURATION: 25 WK), Route [Inhibitor]: INTRAMUSCULAR, Species: MOUSE, Strain/Sex: C3H/HEJ/FEMALE, Target Tissue: Type of Lesion: BLADDER: CARCINOMA, Dose [Carcinogen]: 0.05% (W/V) SOLUTION IN DRINKING WATER WITH 0.001% (W/V) TWEEN 80 FOR 25 WK, Promoter: NONE USED) is given as 9/16 (56%), 9/16 (56%), 0%, not significant and the “tumour outcome (control, treated, inhibition, significance)” value (Carcinogen: N-BUTYL-N-(4-HYDROXYBUTYL)NITROSAMINE, 3817-11-6, Dose [Inhibitor]: 0, 6 UG IN 100 µL SALINE INJECTED INTO RIGHT THIGH 2/WK FOR 30 WK (STUDY DURATION: 30 WK), Route [Inhibitor]: INTRAMUSCULAR, Species: RAT, Strain/Sex: WISTAR/FEMALE, Target Tissue: Type of Lesion: BLADDER: CARCINOMA, Dose [Carcinogen]: 0.025% (W/V) SOLUTION IN DRINKING WATER WITH 0.0005% (W/V) TWEEN 80 FOR 30 WK, Promoter: NONE USED) is given as 9/11 (82%), 6/11 (55%), 33%, not significant.
